A short description of test [1]: microbe, parasite or virus in culture. The conditions noted are these: Mycobacterium tuberculosis, 72 h, read-out: pIC50 (converted).
Test [2] in a line: microbe, parasite or virus in culture. The note with it: Mycobacterium tuberculosis, 96 h, read-out: pIC50 (converted).

Molecules are shown by their SMILES.

As to `COc1cc(Oc2cnc3ccccc3n2)ccc1CN1CCCC1`, the IC50 in test [1] was 9.42 µM; in test [2] it was 13 µM.

As for `CCNCc1nc(-c2ccccc2)no1`, the IC50 in test [1] and in test [2] was greater than 501 µM throughout.

Take `N#CCCCn1nnc(-c2ccccc2)n1`: the IC50 in test [1] is 191 µM; in test [2] it was 178 µM.

In the case of `COc1ccc(N2CCCN(CCC(N)=O)CC2)cc1`, the IC50 is 345 µM in test [1] and 240 µM in test [2].

As for `CCN(Cc1ccc(Cl)c(Cl)c1)C(=O)CCS(C)(=O)=O`, the IC50 in test [1] is 129 µM; in test [2], greater than 501 µM.

As to `CS(=O)(=O)N1CCC(COCc2ccccc2)C1` (stereo unspecified), the IC50 in test [1] was 301 µM; in test [2], 165 µM.

With `CC(=O)c1cccc(OCC(=O)NC2CCCC2)c1`, the figures for the IC50 in test [1] and in test [2] were 290 µM and 182 µM, respectively.

For `CN(C)S(=O)(=O)N1CCCC1COc1ccccc1` (stereo unspecified), the IC50 is 360 µM in test [1] and 271 µM in test [2].

Regarding `O=C1CCN(Cc2cc(Br)cc3cccnc23)CCN1`, the results for the IC50 in test [1] and in test [2] were 493 µM and greater than 501 µM, respectively.

`NCC(O)c1ccc(Cl)s1` (stereo unspecified): the results for the IC50 in test [1] and in test [2] were 241 µM and 290 µM, respectively.

Consider `O=C(c1cccs1)N1CC(Oc2ccccc2Cl)C1`, for which the IC50 in test [1] was 26.7 µM; in test [2] it was 42.8 µM.

For `Nc1ccc(CNc2ccc(C(F)(F)F)nn2)cn1`, the IC50 in test [1] and in test [2] was greater than 501 µM each time.

Regarding `COc1cccc(CNCCn2cccn2)c1OC`, the values for the IC50 in test [1] and in test [2] were 196 µM and greater than 501 µM, respectively.

For the molecule `CCOc1ccc(Cn2nc(COC)oc2=O)nc1`, the values for the IC50 in test [1] and in test [2] were 246 µM and 19.1 µM, respectively.

`C=C(C)CCOC(=O)c1ccc(CS(C)(=O)=O)cc1`: the IC50 was 275 µM in test [1] and 258 µM in test [2].

`COCc1ccc(SCC(=O)N(C)C)cc1`: the IC50 in test [1] and in test [2] was greater than 501 µM each time.

In the case of `O=C(NCC(=O)N1CCc2ccccc2C1)c1cnccn1`, the IC50 in test [1] and in test [2] was greater than 50.1 µM throughout.

Consider `CCCN(C)S(=O)(=O)NC(C)c1ccc(OC)c(F)c1` (stereo unspecified), for which the figures for the IC50 in test [1] and in test [2] were 153 µM and 163 µM, respectively.

For the molecule `Clc1cncc(NCC2CN(C3CC3)CCO2)n1` (stereo unspecified), the results for the IC50 in test [1] and in test [2] were 259 µM and 311 µM, respectively.

As to `CN(C)S(=O)(=O)c1cc2c(cc1Cl)OCCO2`, the IC50 was 209 µM in test [1] and greater than 501 µM in test [2].

With `CNCC(O)CN1CCc2ccccc2CC1` (stereo unspecified), the results for the IC50 in test [1] and in test [2] were 254 µM and 289 µM, respectively.

In the case of `O=C(C1CC1)N1CCN(Cc2cccc(F)c2)CC1`, the IC50 in test [1] is greater than 501 µM; in test [2], 210 µM.

`COc1cc(C(=O)NCC2CCC2)cc2c1OCCO2`: the IC50 in test [1] was 245 µM; in test [2] it was 321 µM.

Consider `CC(C)OCCS(=O)(=O)N(C)Cc1ccco1`, for which the figures for the IC50 in test [1] and in test [2] were 110 µM and 104 µM, respectively.

Consider `CCN(CC)c1ccc(C(=O)Nc2cc[nH]n2)cn1`, for which the results for the IC50 in test [1] and in test [2] were 251 µM and greater than 501 µM, respectively.

For `Clc1ccc(Cc2nc(CNCCn3cccn3)cs2)cc1`, the figures for the IC50 in test [1] and in test [2] were 22.8 µM and 24.8 µM, respectively.

Turning to `COc1cc(Oc2ncccc2C(F)(F)F)ccc1CN1CCCC1`, the IC50 was greater than 50.1 µM in test [1] and 21 µM in test [2].

With `O=C(CCN1CCCCC1)c1ccc2c(c1)OCO2`, the IC50 in test [1] and in test [2] was greater than 501 µM in each case.

Turning to `c1ccc(CCc2n[nH]c(C3CCC3)n2)cc1`, the IC50 in test [1] and in test [2] was greater than 50.1 µM each time.

With `CC(C)c1ccc(O)c(C(=O)NC2CCN(c3ncccn3)CC2)c1`, the IC50 in test [1] is 20.4 µM; in test [2] it was 24.7 µM.

On to `OCCC1COc2ccc(F)cc2N1` (stereo unspecified), for which the IC50 in test [1] and in test [2] was greater than 501 µM throughout.

Take `CC(C)(C)c1cnc(CN2CCOCC2C(N)=O)o1` (stereo unspecified): the results for the IC50 in test [1] and in test [2] were 158 µM and greater than 501 µM, respectively.

Regarding `NCC(=O)N1CCCC(CCc2c(F)cccc2F)C1` (stereo unspecified), the IC50 was 238 µM in test [1] and 258 µM in test [2].

For `CCCOc1ccc(NS(=O)(=O)N(C)C)cc1Cl`, the IC50 is 196 µM in test [1] and greater than 501 µM in test [2].

As to `CC1CN(C(=O)c2cnsn2)c2cccc(Cl)c2O1` (stereo unspecified), the IC50 in test [1] is 67.6 µM; in test [2], greater than 501 µM.

With `O=C1CNc2ncnc(N3CCN(c4ccccc4F)CC3)c2N1`, the IC50 in test [1] and in test [2] was greater than 50.1 µM throughout.

Regarding `Cc1cc(NC(=O)Cc2ccc3c(c2)OCCO3)no1`, the IC50 in test [1] is 271 µM; in test [2], greater than 501 µM.

In the case of `Cc1cnn(CCNCc2nccn2C)c1`, the IC50 in test [1] is 306 µM; in test [2] it was 294 µM.

Regarding `NCC(=O)N1CCCC(CCc2ccc(F)cc2F)C1` (stereo unspecified), the IC50 is 137 µM in test [1] and 310 µM in test [2].

As for `CNc1cc(CN(C)Cc2ccccc2)ccn1`, the figures for the IC50 in test [1] and in test [2] were 227 µM and 430 µM, respectively.

Consider `Cc1ncc(CN(C)CC(O)COCc2ccco2)s1` (stereo unspecified), for which the IC50 in test [1] and in test [2] was greater than 501 µM throughout.

In the case of `Cc1ccc(OC(C)CN)cc1` (stereo unspecified), the IC50 in test [1] is 77 µM; in test [2] it was 166 µM.

On to `CCOC(=O)CNc1ccc(OC)cc1`, for which the IC50 in test [1] is 124 µM; in test [2] it was 335 µM.

As to `Cc1cccc(OCC(O)CNc2ncccc2F)c1` (stereo unspecified), the values for the IC50 in test [1] and in test [2] were 19.7 µM and 11.6 µM, respectively.

On to `O=C(CCC(=O)N1CCC(Oc2ncccc2Br)CC1)c1ccccc1`, for which the IC50 in test [1] is 34.6 µM; in test [2], 45.4 µM.

Turning to `CC(=O)NCc1ccc(C(=O)CSc2ccccn2)s1`, the IC50 in test [1] and in test [2] was greater than 501 µM each time.

`Cn1cc(C(N)=O)c(NC(=O)c2ccc(Br)cc2)n1`: the IC50 in test [1] was 257 µM; in test [2] it was greater than 501 µM.

For the molecule `CCN(C)S(=O)(=O)N(CC)CC(O)c1ccc(C)cc1` (stereo unspecified), the results for the IC50 in test [1] and in test [2] were 334 µM and 293 µM, respectively.

For the molecule `CCCN(CCn1c(=O)oc2ccccc21)CC1CC1`, the IC50 in test [1] and in test [2] was greater than 50.1 µM each time.

`Brc1cccc2c1CNCCO2`: the values for the IC50 in test [1] and in test [2] were 213 µM and greater than 501 µM, respectively.

Regarding `CN1CC(=O)Nc2cccnc21`, the IC50 in test [1] was 157 µM; in test [2], 314 µM.

`Cn1cccc1C(=O)N1CCN2C[C@H](Oc3cccnc3)C[C@H]2C1`: the IC50 in test [1] and in test [2] was greater than 50.1 µM each time.

In the case of `CC(C)C(NCC(N)=O)c1ccc(F)cc1` (stereo unspecified), the IC50 in test [1] and in test [2] was greater than 501 µM each time.

With `CC(C)(C)c1nc(CN2CCC(c3ccnn3CCO)CC2)no1`, the IC50 in test [1] and in test [2] was greater than 50.1 µM in each case.

`O=C(CCC1CCCC1)N1CCC(c2cc3ncccc3c(O)n2)CC1`: the IC50 in test [1] was greater than 50.1 µM; in test [2] it was 0.855 µM.

Take `Cc1cc(C)c(C)c(OCC(=O)N2CCN(C)CC2)c1`: the IC50 in test [1] is 111 µM; in test [2], 129 µM.

Turning to `NCc1cccc(OCc2ccccn2)c1`, the IC50 is 187 µM in test [1] and greater than 501 µM in test [2].

On to `Cc1cc(NC2CCC(=O)N(C)C2)n2nccc2n1` (stereo unspecified), for which the IC50 in test [1] and in test [2] was greater than 50.1 µM throughout.

In the case of `NCCNS(=O)(=O)c1ccc(-c2ccccc2)cc1`, the IC50 in test [1] is 160 µM; in test [2], 171 µM.

Regarding `C[C@@H](CO)Nc1ncc(Cl)cc1Br`, the values for the IC50 in test [1] and in test [2] were 291 µM and greater than 501 µM, respectively.

Consider `CC(NC(=O)CNc1ccccc1F)c1ccco1` (stereo unspecified), for which the IC50 in test [1] was 51.7 µM; in test [2], 4.24 µM.

As to `CCc1cccc2c1OCCC2N` (stereo unspecified), the IC50 in test [1] and in test [2] was greater than 501 µM each time.

With `Cc1nccn1C1CCCN(C(=O)c2ccc(N3CCCC3)nn2)C1` (stereo unspecified), the IC50 in test [1] and in test [2] was greater than 50.1 µM throughout.

For the molecule `COc1ccc(-c2nc(CCN)co2)cc1`, the IC50 in test [1] was 80.5 µM; in test [2], 71.4 µM.

Regarding `O=C(C1Cc2cc(Cl)ccc2O1)N1CCOCC1` (stereo unspecified), the IC50 in test [1] and in test [2] was greater than 501 µM throughout.

As to `CCc1nc(C)c(C(=O)NCC2CCS(=O)(=O)CC2)o1`, the IC50 in test [1] and in test [2] was greater than 501 µM throughout.

Consider `CN(C)C(=O)CN1CCCC1c1ccc(F)cc1` (stereo unspecified), for which the IC50 in test [1] is 96.3 µM; in test [2], 143 µM.

With `NCC1CCN(CCc2ccccc2)C1` (stereo unspecified), the IC50 in test [1] was 209 µM; in test [2], 213 µM.

Consider `CCCNC(=O)c1ccc2c(c1)NC(=O)C(C)S2` (stereo unspecified), for which the IC50 was 406 µM in test [1] and greater than 501 µM in test [2].

With `CC(=O)Nc1nc(COc2ccc(C)cn2)cs1`, the IC50 in test [1] is 237 µM; in test [2] it was 244 µM.

On to `CCC(C)Oc1cc(C(=O)NCC2(O)CCC2)ccn1` (stereo unspecified), for which the IC50 was 62.8 µM in test [1] and 29.6 µM in test [2].

As to `NCCN1CCN(c2cccc(C(F)(F)F)c2)CC1`, the values for the IC50 in test [1] and in test [2] were 356 µM and 260 µM, respectively.

Take `O=C(NCC(O)c1ccc(F)cc1)Nc1cnns1` (stereo unspecified): the IC50 in test [1] and in test [2] was greater than 501 µM throughout.

Regarding `CN(Cc1ccc(Br)o1)C(=O)c1nccnc1N`, the IC50 in test [1] is 210 µM; in test [2] it was 414 µM.

Regarding `CCC(C(=O)Nc1cc2c(cc1C)OCO2)N(C)C` (stereo unspecified), the IC50 in test [1] and in test [2] was greater than 501 µM each time.

Regarding `c1ccc(Cc2cccc(C3CCCN3C3CCOCC3)n2)cc1` (stereo unspecified), the IC50 was 13.2 µM in test [1] and greater than 50.1 µM in test [2].

As for `COc1ccc(CN2C[C@H](O)[C@@H](N(C)C)C2)c(C)c1C`, the values for the IC50 in test [1] and in test [2] were 105 µM and 349 µM, respectively.

Consider `CC(C)COc1cncc(NC(C)CO)n1` (stereo unspecified), for which the IC50 in test [1] and in test [2] was greater than 501 µM each time.

For `Cc1cc(C(=O)NCc2csc(N(C)C)n2)c2ccc(C)c(C)c2n1`, the IC50 in test [1] was 19 µM; in test [2], 13.6 µM.

For the molecule `O=C(NCCc1c[nH]c2ccccc12)C1(n2cnnn2)CCCCC1`, the IC50 in test [1] was 47.6 µM; in test [2] it was greater than 50.1 µM.

As for `O=C(NCCOc1ncccc1Cl)c1cc(Cl)c[nH]1`, the IC50 in test [1] is 188 µM; in test [2], 287 µM.

Consider `COc1c(C(=O)N2CCOCC2)sc2ccc(F)cc12`, for which the IC50 is 305 µM in test [1] and 284 µM in test [2].

For `CC(N)CCc1ccc2c(c1)OCO2` (stereo unspecified), the IC50 in test [1] was 185 µM; in test [2], 274 µM.

The values are drawn from ChEMBL document CHEMBL3988442, “University of Dundee, Small-Polar-MMV Screening Library” (2021).
